{"source": "patent US11007269B2", "about": "“P53 degradation inducing molecule and pharmaceutical composition” (Tokyo University of Science Foundation, priority 2016, dated 2021)", "molecular_target": "T1, endogenous wild-type p53 protein (Mus musculus, UniProt P02340)", "T1 construct": "from tissue; host or cells: liver of C57BL/6J wild-type mice", "T1 sequence (P02340 whole entry)": "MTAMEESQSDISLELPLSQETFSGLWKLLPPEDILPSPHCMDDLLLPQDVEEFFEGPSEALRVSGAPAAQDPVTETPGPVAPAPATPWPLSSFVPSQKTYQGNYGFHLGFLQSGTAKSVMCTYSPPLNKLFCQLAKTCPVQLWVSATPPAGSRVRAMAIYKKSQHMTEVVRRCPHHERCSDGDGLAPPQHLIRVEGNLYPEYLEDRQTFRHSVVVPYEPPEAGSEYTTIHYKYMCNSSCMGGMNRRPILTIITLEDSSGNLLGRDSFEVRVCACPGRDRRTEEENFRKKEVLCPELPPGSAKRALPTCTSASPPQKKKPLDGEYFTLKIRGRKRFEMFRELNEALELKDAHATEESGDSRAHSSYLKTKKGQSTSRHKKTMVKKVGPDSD", "test": "Western blot of wild-type p53 protein in liver of mice given the compound", "format": "in vivo", "settings": "C57BL/6J mice, 48 hours after administration", "procedure": "In Example 4, degradation (knockdown) of the endogenous wild-type p53 protein and MDM2 protein in mouse individuals in which TIBC-CANDDY_MLN had been administered was evaluated by Western blot analysis.\nTIBC-CANDDY_MLN was dissolved in DMSO immediately before administration, and then dissolved in corn oil (Code No. 25606-55, Nacalai Tesque) so that the concentration of DMSO was 10 vol %, and then a dose of 50 mg/kg body weight or 100 mg/kg body weight was administered intraperitoneally to C57BL/6J wild-type mice (7 to 8 weeks old, male) (CLEA Japan, Inc.) (n=3). As a control, an injection carrier (corn oil containing 10 vol % DMSO) was used. The mice were kept under an environment of ad libitum access to food and water. […]\nThe frozen tissue (0.04 g) was triturated, and then 980 μL of 1×TKM tissue lysis buffer (50 mM triethanolamine (pH 7.8), 50 mM KCl, 5 mM MgCl2, 0.25 M sucrose, 1 mM PMSF, protein inhibitors cocktail-EDTA free (Code No. 03969-21, Nacalai Tesque), 1 mM DTT, Recombinant RNase inhibitor 5 μl/mL (40 U/μl, Cat No. 2313A, Lot No. K8402DA, TAKARA Bio)) was added, and dissolved by rotation for 15 minutes (1 rpm, 25° C.). […] The concentration of proteins in the tissue extract was quantified with a spectrophotometer with the tissue extract that had been diluted 20 times using DEPC-treated water. […]"}
{"molecule": "CC(C)C[C@H](NC(=O)CNC(=O)c1cc(Cl)ccc1Cl)C(=O)NCCCCCCC(=O)Nc1ccc(C(=O)/C=C/c2ccc(I)cc2)cc1", "note": "[TIBC-CANDDY_MLN]", "values": [{"measurement": "amount of endogenous wild-type p53 protein in the liver", "setting": "50 mg/kg body weight intraperitoneally", "result": "reduced"}, {"measurement": "amount of endogenous wild-type p53 protein in the liver", "setting": "100 mg/kg body weight intraperitoneally", "result": "reduced"}]}
